# In publication PMC11997989, “Design of Novel Mercapto-3-phenylpropanoyl Dipeptides as Dual Angiotensin-Converting Enzyme C–Domain-Selective/Neprilysin Inhibitors” (Journal of Medicinal Chemistry, 2025):
# Experiments:
# human NEP ectodomain [1] = molecular target: T1, human NEP ectodomain (Homo sapiens, UniProt P08473); test: NEP inhibition assay (continuous fluorogenic activity assay); format: biochemical; conditions: for IC50: 0.4 nM NEP, mean ± standard error, n ≥ 2
# T1 construct: A purified human NEP ectodomain was used in continuous activity assays; made in house
# From the text: Furthermore, while comparing Ki values (assuming they can be accurately determined in vitro using available kinetic models) provides information on the relative binding affinities in the absence of substrate, in vivo the extent of enzyme inhibition will be affected by the relative concentrations and affinities of the physiological substrates competing for the binding sites.
# cACE [2] = molecular target: T2, cACE (Homo sapiens, UniProt P12821); test: ACE inhibition assay, cACE (fluorogenic end point, Z-FHL); format: biochemical; conditions: for C-selectivity factor: nACE IC50/cACE IC50; for IC50: ~1 nM cACE, 0.5 mM Z-FHL, mean ± standard error, n ≥ 2
# T2 construct: using purified recombinant single domain human ACE proteins and the human NEP ectodomain as previously described; made in house
# From the text: (§1) For an accurate comparison of the inhibitor potencies across different enzymes and substrates, it is preferable to determine inhibition constants (Ki values). […] In the case of these new analogues, it was more challenging to accurately determine Ki values that could reliably be used to determine selectivity. […] This highlights the challenges in extrapolating data from in vitro assays to predict in vivo selectivity between targets. Furthermore, while comparing Ki values (assuming they can be accurately determined in vitro using available kinetic models) provides information on the relative binding affinities in the absence of substrate, in vivo the extent of enzyme inhibition will be affected by the relative concentrations and affinities of the physiological substrates competing for the binding sites. Given that accurate Ki values could not be calculated in a consistent manner for all compound-enzyme combinations, IC50 values are reported (Table 1).
# (§2) Purified fully glycosylated human cACE and nACE proteins[36],[37] were used in fluorogenic end point activity assays utilizing Cbz-Phe-His-Leu (Z-FHL, Bachem Ltd., nACE Km = 600 μM; cACE Km = 60 μM) as the substrate as previously described.[32] Final reactions contained ∼1 nM nACE/cACE and 0.5 mM Z-FHL.
# nACE [3] = molecular target: T3, nACE (Homo sapiens, UniProt P12821); test: ACE inhibition assay, nACE (fluorogenic end point, Z-FHL); format: biochemical; conditions: for reduction in affinity for nACE compared to omapatrilat: factor, from IC50 values; for IC50: ~1 nM nACE, 0.5 mM Z-FHL, mean ± standard error, n ≥ 2
# T3 construct: using purified recombinant single domain human ACE proteins and the human NEP ectodomain as previously described; made in house
# From the text: as §1, §2
# NEP = molecular target: T4, NEP (Homo sapiens, UniProt P08473); test: Michaelis-Menten inhibition kinetics (mode of inhibition), NEP; format: biochemical; conditions: enzyme and inhibitor pre-incubated 15 min; best-fitting model
# T4 construct: A purified human NEP ectodomain was used in continuous activity assays; made in house
# nACE [4] = molecular target: T3, nACE; test: Michaelis-Menten inhibition kinetics (mode of inhibition), nACE; format: biochemical; conditions: enzyme and inhibitor pre-incubated 15 min; best-fitting model
# Method: (§3) page 9: curve. […] The apparent […]) obtained from this equation can then be converted to K i as for an IC50 value using Equation 1 provided the substrate competes with the inhibitor for the active site. (Et [[…] = V0(1 - i i ) Eq 2 2Et Where Vo is activity in absence of inhibitor, Vi is activity in presence of inhibitor, [I] is inhibitor concentration and Et is total enzyme concentration. Due to the slow binding of many protease inhibitors, inhibitors are typically pre-incubated with the enzyme prior to the addition of substrate to ensure that inhibition constants are measured under steady-state conditions. Accordingly, if an inhibitor forms a very tight complex with the enzyme resulting in a very slow off-rate, the inhibitor may not dissociate in the time of the experiment. Determining the Ki values for the mercaptoacyl inhibitors was challenging due to the chemical instability of the thiol group (although this was controlled by making up fresh stock before each experiment and diluting them immediately), the high potency, and the slow off rates observed in some cases, particularly for cACE. […] This is exemplified by the data for AD016. […] The K i values for the cACE determined in from this model were also inconsistent and were influence by the amount of enzyme used to the assay, again indicative of tight-binding conditions (Figure S1 C and D). […]
# cACE [5] = molecular target: T2, cACE; test: Jump dilution assay, cACE; format: biochemical; conditions: 15 min pre-incubation, 20-fold dilution, activity immediately and ~3 h later, 1 mM Z-FHL
# Method: (§4) Figure S2: Jump dilution experiment forAD016. A) Enzyme and inhibitor were pre-incubated for 15 min and then an aliquot of each was removed and diluted 20-fold in assay buffer. Activity assays were performed on both the undiluted (A and C) and diluted (B and D) enzyme-inhibitor mixes immediately and ~3h. later. Reaction was initiated with Z-FHL substrate (1mM final concentration). Final enzyme and inhibitor concentrations are […]
# (§5) The Morrison equation was fitted to the same data but gave a poor fit when Et was constrained to the enzyme concentration used in the assay and an unrealistic Et if this value was left unconstrained (Figure S3 C & D). The obvious explanation for the high Et predicted by the model is that the inhibitor concentration is much lower than […]
# (§6) the nACE data would imply the inhibitor concentration is ~350-fold lower than expected while the cACE data implies it is 40-fold lower than expected. The same inhibitor dilution series was […]
# (§7) (1 picture or pasted object on this page, not shown here)
# (§8) Figure S4: Morrison plots for the inhibition of cACE by compound AD016. Two assays with carried out in parallel. One using 1nM final enzyme concentration and the other using 5-fold less (0.2nM). The model was fitted without constraining the Et. The Et predicted from data set using the Morrison equation is indicated on the graph. […]
# nACE [6] = molecular target: T3, nACE; test: Jump dilution assay, nACE; format: biochemical; conditions: 15 min pre-incubation, 20-fold dilution, activity immediately and ~3 h later, 1 mM Z-FHL
# Method: as §4, §5, §6, §7, §8
# cACE [7] = molecular target: T2, cACE; test: Michaelis-Menten inhibition kinetics (mode of inhibition), cACE; format: biochemical; conditions: enzyme and inhibitor pre-incubated 15 min; best-fitting model
# Method: as §3
# human NEP ectodomain [8] = molecular target: T1, human NEP ectodomain; design: method as in PMID 35113565; conditions: stated in discussion, LisW data previously reported; cited from earlier work
# patients = conditions: OCTAVE study, higher than the ACE inhibitor enalapril; cited from earlier work
# [9] = 5 μM MCA-RPPGFSAFK(Dnp)-OH substrate
# T2 sequence (P12821 643-1222 limits assumed): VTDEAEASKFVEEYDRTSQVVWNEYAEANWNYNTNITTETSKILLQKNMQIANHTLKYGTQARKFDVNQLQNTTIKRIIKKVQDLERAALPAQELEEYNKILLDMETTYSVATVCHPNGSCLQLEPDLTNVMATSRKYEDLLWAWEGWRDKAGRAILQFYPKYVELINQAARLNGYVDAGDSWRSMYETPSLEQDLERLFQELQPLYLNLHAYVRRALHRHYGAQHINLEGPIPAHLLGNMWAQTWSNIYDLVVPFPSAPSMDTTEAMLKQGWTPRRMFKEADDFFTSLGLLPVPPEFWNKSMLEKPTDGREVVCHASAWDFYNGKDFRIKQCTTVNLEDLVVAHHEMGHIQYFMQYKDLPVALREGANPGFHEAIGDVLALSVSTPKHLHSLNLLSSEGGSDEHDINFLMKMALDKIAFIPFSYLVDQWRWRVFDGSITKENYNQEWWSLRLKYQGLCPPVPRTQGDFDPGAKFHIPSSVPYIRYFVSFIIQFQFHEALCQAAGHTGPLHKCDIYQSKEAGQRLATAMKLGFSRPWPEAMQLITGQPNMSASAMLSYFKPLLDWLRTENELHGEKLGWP
# T1 sequence (P08473 52-750 limits assumed): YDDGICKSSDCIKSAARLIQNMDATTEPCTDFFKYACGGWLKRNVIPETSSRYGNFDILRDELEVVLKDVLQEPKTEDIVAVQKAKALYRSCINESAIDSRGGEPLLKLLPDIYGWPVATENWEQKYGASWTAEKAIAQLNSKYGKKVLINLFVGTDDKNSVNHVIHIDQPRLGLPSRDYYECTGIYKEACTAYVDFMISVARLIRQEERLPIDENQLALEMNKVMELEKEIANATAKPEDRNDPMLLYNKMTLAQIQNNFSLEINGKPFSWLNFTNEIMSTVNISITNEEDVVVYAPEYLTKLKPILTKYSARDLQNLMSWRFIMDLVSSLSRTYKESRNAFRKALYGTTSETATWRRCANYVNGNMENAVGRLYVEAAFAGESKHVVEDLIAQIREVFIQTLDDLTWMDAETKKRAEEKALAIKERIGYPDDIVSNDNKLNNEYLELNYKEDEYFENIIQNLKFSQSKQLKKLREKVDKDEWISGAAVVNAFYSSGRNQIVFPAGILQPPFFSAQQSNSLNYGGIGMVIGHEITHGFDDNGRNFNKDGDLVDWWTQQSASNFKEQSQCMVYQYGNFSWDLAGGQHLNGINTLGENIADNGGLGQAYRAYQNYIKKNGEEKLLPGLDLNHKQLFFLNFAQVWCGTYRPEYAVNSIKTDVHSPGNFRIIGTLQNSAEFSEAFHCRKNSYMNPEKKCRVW
# T3 sequence (P12821 40-624 limits assumed): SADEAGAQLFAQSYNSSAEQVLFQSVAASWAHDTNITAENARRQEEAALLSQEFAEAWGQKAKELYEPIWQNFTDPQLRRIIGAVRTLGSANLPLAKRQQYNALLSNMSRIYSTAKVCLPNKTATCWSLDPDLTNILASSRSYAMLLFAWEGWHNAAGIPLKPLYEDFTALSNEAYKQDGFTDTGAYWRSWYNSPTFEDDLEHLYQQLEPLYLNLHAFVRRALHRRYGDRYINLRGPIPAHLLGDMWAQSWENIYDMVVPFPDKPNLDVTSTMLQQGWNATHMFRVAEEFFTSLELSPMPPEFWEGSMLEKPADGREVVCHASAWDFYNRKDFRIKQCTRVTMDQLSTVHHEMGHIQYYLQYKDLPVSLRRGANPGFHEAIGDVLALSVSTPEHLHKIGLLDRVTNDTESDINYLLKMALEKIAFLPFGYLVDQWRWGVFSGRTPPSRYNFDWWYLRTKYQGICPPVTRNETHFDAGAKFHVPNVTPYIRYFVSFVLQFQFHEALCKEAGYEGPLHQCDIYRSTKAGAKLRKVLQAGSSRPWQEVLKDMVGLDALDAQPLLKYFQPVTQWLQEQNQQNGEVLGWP
# T4 sequence (P08473 52-750 limits assumed): as the sequence (P08473 52-750 limits assumed) above
SMILES,IC50 (human NEP ectodomain [1]; [9]) [µM],C-selectivity factor (cACE [2]),reduction in affinity for nACE compared to omapatrilat (nACE [3]),IC50 (nACE [3]) [µM],IC50 (cACE [2]) [µM],also measured
"O=C(NCC(=O)N1[C@@H](c2cccc(O)c2)CC[C@H]1C(=O)O)[C@@H](S)Cc1ccc(O)cc1 [AD014, (2S,5R)-5-(3-Hydroxyphenyl)-1-(((S)-3-(4-hydroxyphenyl)-2-mercaptopropanoyl)glycyl)pyrrolidine-2-carboxylic Acid]",0.02 ± 0.01,2,~10,0.02 ± 0.007,–,"reduction in affinity for cACE compared to omapatrilat (cACE [2]; factor, from IC50 values): ~10"
"Cc1ccc([C@H]2CC[C@@H](C(=O)O)N2C(=O)CNC(=O)[C@@H](S)Cc2ccccc2)cc1 [AD015, (2S,5R)-1-(((S)-2-Mercapto-3-phenylpropanoyl)glycyl)-5-(p-tolyl)pyrrolidine-2-carboxylic Acid]",0.009 ± 0.003,–,10,0.019 ± 0.001,0.0008 ± 0.0002,selectivity for NEP over nACE (human NEP ectodomain [1]; from IC50 values): 2 fold
"NCCCC[C@H](NC(=O)[C@@H](S)Cc1ccccc1)C(=O)N[C@@H](Cc1c[nH]c2ccccc12)C(=O)O [AD016, ((S)-2-Mercapto-3-phenylpropanoyl)-L-lysyl-L-tryptophan]",1.2 ± 0.2,21,–,0.15 ± 0.02,–,"mode of inhibition of NEP (NEP): competitive inhibition; IC50 (human NEP ectodomain [1]; 5 μM MCA-[…](Dnp)-OH substrate): 1 µM; improved NEP inhibitory activity compared to LisW (human NEP ectodomain [1]; ratio of NEP IC50 values, LisW vs compound): over 200 fold; mode of inhibition of nACE (nACE [4]): competitive inhibition; dissociation from cACE on jump dilution (cACE [5]): remains tightly bound; dissociation from nACE on jump dilution (nACE [6]): dissociates from nACE when diluted; mode of inhibition of cACE (cACE [7]): non-competitive"
"NCCCC[C@H](N[C@@H](CCc1ccccc1)C(=O)O)C(=O)N[C@@H](Cc1c[nH]c2ccccc12)C(=O)O [LisW, Lisinopril-tryptophan]",–,–,–,–,–,Ki (human NEP ectodomain [8]): > 150 µM
"O=C(N[C@H]1CCS[C@H]2CCC[C@@H](C(=O)O)N2C1=O)[C@@H](S)Cc1ccccc1 [Omapatrilat, reference compound]",0.01,–,–,0.002 ± 0.0001,0.001 ± 0.0001,incidence of angioedema relative to enalapril (patients): 3 fold
